Patent US10030020B2, “Spirocycle compounds and methods of making and using same” (Abide Therapeutics, Inc., priority 2016, dated 2018)

Key:
MAGL [1] = target: T1, MAGL (Mus musculus (Mouse), UniProt O35678); assay: Mouse brain proteomes from inhibitor treated mice (oral gavage, sacrificed 4 h after administration, ABPP analysis); format: in vivo, mouse (C57Bl/6J); details: 5 mg/kg oral gavage
How it was run: (§1)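 Wild-type C57Bl/6J mice; p.o. gavage, vehicle e.g. PEG400/EtOH/PBS 7/2/1; 5 mg/kg. Brain harvested 4 h post-dose, proteome profiled by ABPP. Read-out: % inhibition.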

ABHD6 [2] = target: T2, ABHD6 (Mus musculus (Mouse), UniProt Q8R2Y0); assay: In vitro competitive activity-based protein profiling (mouse brain membrane fraction or cell lysates), ABHD6 band; format: biochemical; details: mouse proteome; for inhibition at 1 µM: read-out: ABHD6 % Inh 1 μM (mouse)
How it was run: (§2)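 Competitive ABPP: proteome 1.0 mg/mL protein + inhibitor, 30 min, 37° C; FP-Rh probe (stock 50 μM in DMSO) added, 30 min, 37° C; SDS quench, SDS-PAGE, fluorescent band intensity read.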

FAAH [3] = target: T3, FAAH (Mus musculus (Mouse), UniProt O08914); assay: Mouse brain proteomes from inhibitor treated mice (oral gavage, sacrificed 4 h after administration, ABPP analysis), FAAH; format: in vivo, mouse (C57Bl/6J); details: 5 mg/kg oral gavage
How it was run: as §1

MAGL [4] = target: T1, MAGL; assay: In vitro competitive activity-based protein profiling (mouse brain membrane fraction or cell lysates), MAGL band; format: biochemical; details: mouse proteome; for inhibition at 1 µM: read-out: MAGL % Inh 1 μM (mouse)
Protocol: In Vitro Competitive Activity-Based Protein Profiling.
Proteomes (mouse brain membrane fraction or cell lysates) (50 μL, 1.0 mg/mL total protein concentration) were preincubated with varying concentrations of inhibitors at 37° C. After 30 min, FP—Rh (1.0 μL, 50 μM in DMSO) was added and the mixture was incubated for another 30 min at 37° C. Reactions were quenched with SDS loading buffer (50 μL-4×) and run on SDS-PAGE.

FAAH [5] = target: T3, FAAH; assay: In vitro competitive activity-based protein profiling (mouse brain membrane fraction or cell lysates), FAAH band; format: biochemical; details: mouse proteome; for inhibition at 1 µM: read-out: FAAH % Inh 1 μM (mouse)
How it was run: as §2

MAGL [6] = target: MAGL (Homo sapiens (Human), UniProt Q99685); assay: In vitro competitive activity-based protein profiling (human prefrontal cortex or cell membrane fractions; hMAGL expressed in HEK293T cells); format: biochemical; details: human proteome, competitive ABPP
Protocol: In Vitro Competitive Activity-Based Protein Profiling (Human).
Proteomes (human prefrontal cortex or cell membrane fractions) (50 μL, 1.0-2.0 mg/mL total protein concentration) were preincubated with varying concentrations of inhibitors at 37° C. After 30 min, FP—Rh or JW912 (1.0 μL, 50 μM in DMSO) was added and the mixture was incubated for another 30 min at room temperature. Reactions were quenched with SDS loading buffer (15 μL-4×) and run on SDS-PAGE.
Recombinant Expression of Human MAGL in HEK293T Cells.
Cell lysates were diluted with mock proteomes for use in competitive ABPP experiments.

ABHD6 [7] = target: T2, ABHD6; assay: Mouse brain proteomes from inhibitor treated mice (oral gavage, sacrificed 4 h after administration, ABPP analysis), ABHD6; format: in vivo, mouse (C57Bl/6J); details: 5 mg/kg oral gavage
How it was run: as §1

MAGL (Homo sapiens (Human), UniProt Q99685), sequence (Q99685 whole entry): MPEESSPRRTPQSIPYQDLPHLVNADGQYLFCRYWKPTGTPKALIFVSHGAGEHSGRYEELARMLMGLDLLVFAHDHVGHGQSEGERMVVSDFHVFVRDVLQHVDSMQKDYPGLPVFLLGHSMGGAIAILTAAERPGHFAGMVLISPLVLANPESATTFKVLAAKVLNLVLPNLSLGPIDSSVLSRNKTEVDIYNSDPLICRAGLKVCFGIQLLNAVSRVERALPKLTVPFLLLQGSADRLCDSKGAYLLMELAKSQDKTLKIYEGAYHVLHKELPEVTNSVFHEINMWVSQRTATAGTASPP
T1 sequence (O35678 whole entry): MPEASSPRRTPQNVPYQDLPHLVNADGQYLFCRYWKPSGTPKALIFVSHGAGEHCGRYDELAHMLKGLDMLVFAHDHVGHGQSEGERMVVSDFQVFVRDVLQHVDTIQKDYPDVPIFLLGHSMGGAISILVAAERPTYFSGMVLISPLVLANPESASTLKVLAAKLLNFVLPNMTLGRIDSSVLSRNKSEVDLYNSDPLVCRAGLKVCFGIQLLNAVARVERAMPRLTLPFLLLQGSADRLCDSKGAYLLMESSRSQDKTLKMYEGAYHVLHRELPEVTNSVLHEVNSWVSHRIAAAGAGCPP
T3 sequence (O08914 whole entry): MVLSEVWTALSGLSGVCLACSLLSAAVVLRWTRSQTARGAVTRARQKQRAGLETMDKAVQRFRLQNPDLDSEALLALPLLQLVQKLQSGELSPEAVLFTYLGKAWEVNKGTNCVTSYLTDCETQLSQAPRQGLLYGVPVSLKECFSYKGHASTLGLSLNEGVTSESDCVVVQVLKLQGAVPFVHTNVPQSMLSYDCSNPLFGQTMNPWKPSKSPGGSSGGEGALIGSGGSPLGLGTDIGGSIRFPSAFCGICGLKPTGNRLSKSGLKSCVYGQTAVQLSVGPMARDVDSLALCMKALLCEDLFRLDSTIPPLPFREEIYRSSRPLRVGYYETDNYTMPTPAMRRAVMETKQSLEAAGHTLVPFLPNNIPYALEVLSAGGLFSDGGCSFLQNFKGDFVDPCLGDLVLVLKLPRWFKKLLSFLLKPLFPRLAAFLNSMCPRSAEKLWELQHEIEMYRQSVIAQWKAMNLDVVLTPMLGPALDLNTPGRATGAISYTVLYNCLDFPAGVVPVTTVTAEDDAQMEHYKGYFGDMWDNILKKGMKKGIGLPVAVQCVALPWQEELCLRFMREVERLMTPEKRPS
T2 sequence (Q8R2Y0 whole entry): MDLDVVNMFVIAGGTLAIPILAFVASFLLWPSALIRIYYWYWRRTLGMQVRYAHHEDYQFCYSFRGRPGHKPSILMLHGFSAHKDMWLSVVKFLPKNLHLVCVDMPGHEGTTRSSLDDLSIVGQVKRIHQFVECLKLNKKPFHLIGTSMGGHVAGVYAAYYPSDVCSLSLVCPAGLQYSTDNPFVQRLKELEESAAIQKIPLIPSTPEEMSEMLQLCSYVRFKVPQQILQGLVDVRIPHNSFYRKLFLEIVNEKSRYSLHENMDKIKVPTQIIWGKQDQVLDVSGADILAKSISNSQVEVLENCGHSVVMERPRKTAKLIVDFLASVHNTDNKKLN

**Q.** O=C(O)C1CCN(c2cc(C(F)(F)F)ccc2CN2CCCC23CCN(C(=O)OC(C(F)(F)F)C(F)(F)F)CC3)C1 (stereo not shown) [Example 199] was tested. Which “MAGL % Inh 5 mg/kg (mouse)” value (MAGL [1]) did it give?
**A.** ## (## is equal to or greater than 25% but less than 75%)

**Q.** And the inhibition at 1 µM (ABHD6 [2])?
**A.** 25 to 75%

**Q.** What about the IC50 (ABHD6 [2]; competitive ABPP) of the same compound?
**A.** > 1000 nM

**Q.** And the “FAAH % Inh 5 mg/kg (mouse)” value (FAAH [3])?
**A.** # (# is <25%)

**Q.** And the inhibition at 1 µM (MAGL [4])?
**A.** > 75%

**Q.** What about the IC50 (MAGL [4]; competitive ABPP) of the same compound?
**A.** < 100 nM

**Q.** What about the inhibition at 1 µM (FAAH [5]) of the same compound?
**A.** < 25%

**Q.** What about the IC50 (FAAH [5]; competitive ABPP) of the same compound?
**A.** > 1000 nM

**Q.** What about the IC50 (MAGL [6]) of the same compound?
**A.** < 100 nM

**Q.** And the “ABHD6 % Inh 5 mg/kg (mouse)” value (ABHD6 [7])?
**A.** # (# is <25%)

**Q.** What does the source list for O=C(O)C1COCCN1c1cc(CN2CCCC23CCN(C(=O)OC(C(F)(F)F)C(F)(F)F)CC3)cc(C(F)(F)F)c1 (stereo not shown) [Example 200]?
**A.** MAGL % Inh 5 mg/kg (mouse) (MAGL [1]): ## (## is equal to or greater than 25% but less than 75%); inhibition at 1 µM (ABHD6 [2]): < 25%; FAAH % Inh 5 mg/kg (mouse) (FAAH [3]): # (# is <25%); inhibition at 1 µM (MAGL [4]): > 75%; inhibition at 1 µM (FAAH [5]): < 25%; IC50 (MAGL [6]): < 100 nM; ABHD6 % Inh 5 mg/kg (mouse) (ABHD6 [7]): # (# is <25%)

**Q.** How did the “MAGL % Inh 5 mg/kg (mouse)” value (MAGL [1]) turn out when N#Cc1cc(CN2CCCC23CCN(C(=O)OC(C(F)(F)F)C(F)(F)F)CC3)cc(N2CCC(C(=O)O)CC2)c1 [Example 210] was run?
**A.** ### (### is ≥75%)

**Q.** And the inhibition at 1 µM (ABHD6 [2])?
**A.** < 25%

**Q.** What about the “FAAH % Inh 5 mg/kg (mouse)” value (FAAH [3]) of the same compound?
**A.** # (# is <25%)

**Q.** And the inhibition at 1 µM (MAGL [4])?
**A.** > 75%

**Q.** And the inhibition at 1 µM (FAAH [5])?
**A.** < 25%

**Q.** And the IC50 (MAGL [6])?
**A.** < 100 nM

**Q.** And the “ABHD6 % Inh 5 mg/kg (mouse)” value (ABHD6 [7])?
**A.** ## (## is equal to or greater than 25% but less than 75%)

**Q.** For O=C(O)[C@@H]1CCCN(c2cc(C(F)(F)F)ccc2CN2CCC3(CCN(C(=O)OC(C(F)(F)F)C(F)(F)F)CC3)C2)C1 [Example 211], which “MAGL % Inh 5 mg/kg (mouse)” value (MAGL [1]) is on record?
**A.** ## (## is equal to or greater than 25% but less than 75%)

**Q.** And the inhibition at 1 µM (ABHD6 [2])?
**A.** < 25%

**Q.** And the “FAAH % Inh 5 mg/kg (mouse)” value (FAAH [3])?
**A.** # (# is <25%)

**Q.** What about the inhibition at 1 µM (MAGL [4]) of the same compound?
**A.** > 75%

**Q.** What about the inhibition at 1 µM (FAAH [5]) of the same compound?
**A.** < 25%

**Q.** And the IC50 (MAGL [6])?
**A.** < 100 nM

**Q.** What about the “ABHD6 % Inh 5 mg/kg (mouse)” value (ABHD6 [7]) of the same compound?
**A.** # (# is <25%)

**Q.** What does the source list for O=C(O)[C@@H]1CCCN(c2cc(C(F)(F)F)ccc2CN2CCCC23CCN(C(=O)OC(C(F)(F)F)C(F)(F)F)CC3)C1 [Example 214]?
**A.** MAGL % Inh 5 mg/kg (mouse) (MAGL [1]): ### (### is ≥75%); inhibition at 1 µM (ABHD6 [2]): < 25%; FAAH % Inh 5 mg/kg (mouse) (FAAH [3]): # (# is <25%); inhibition at 1 µM (MAGL [4]): > 75%; inhibition at 1 µM (FAAH [5]): < 25%; IC50 (MAGL [6]): < 100 nM; ABHD6 % Inh 5 mg/kg (mouse) (ABHD6 [7]): # (# is <25%)

**Q.** How did the “MAGL % Inh 5 mg/kg (mouse)” value (MAGL [1]) turn out when CC1(C(=O)O)CCCN(c2cc(C(F)(F)F)ccc2CN2CCC3(CCN(C(=O)OC(C(F)(F)F)C(F)(F)F)CC3)C2)C1 (stereo not shown) [Example 216] was run?
**A.** ## (## is equal to or greater than 25% but less than 75%)

**Q.** And the inhibition at 1 µM (ABHD6 [2])?
**A.** 25 to 75%

**Q.** What about the “FAAH % Inh 5 mg/kg (mouse)” value (FAAH [3]) of the same compound?
**A.** # (# is <25%)

**Q.** And the inhibition at 1 µM (MAGL [4])?
**A.** > 75%

**Q.** What about the inhibition at 1 µM (FAAH [5]) of the same compound?
**A.** < 25%

**Q.** And the IC50 (MAGL [6])?
**A.** < 100 nM

**Q.** And the “ABHD6 % Inh 5 mg/kg (mouse)” value (ABHD6 [7])?
**A.** # (# is <25%)

**Q.** What does the source list for O=C(O)[C@H]1CCCN(c2cc(C(F)(F)F)ccc2CN2CCCC23CCN(C(=O)OC(C(F)(F)F)C(F)(F)F)CC3)C1 [Example 217]?
**A.** MAGL % Inh 5 mg/kg (mouse) (MAGL [1]): ### (### is ≥75%); inhibition at 1 µM (ABHD6 [2]): < 25%; FAAH % Inh 5 mg/kg (mouse) (FAAH [3]): # (# is <25%); inhibition at 1 µM (MAGL [4]): > 75%; inhibition at 1 µM (FAAH [5]): < 25%; IC50 (MAGL [6]): < 100 nM; ABHD6 % Inh 5 mg/kg (mouse) (ABHD6 [7]): # (# is <25%)
